Data from ChEMBL document CHEMBL1145167, “Design and synthesis of 4-(alpha-hydroxymalonyl)phenylalanine as a new phosphotyrosyl mimetic and its use in growth factor receptor bound 2 src-homology 2 (Grb2 SH2) domain-binding peptides” (J Med Chem, 2005).

What follows are molecules tested against T1, Growth factor receptor-bound protein 2 (Homo sapiens, UniProt P62993) (assay: Inhibition of Grb2 SH2 domain binding in ELISA).
Target sequence in this assay (P62993 whole entry, the tested form may be a part): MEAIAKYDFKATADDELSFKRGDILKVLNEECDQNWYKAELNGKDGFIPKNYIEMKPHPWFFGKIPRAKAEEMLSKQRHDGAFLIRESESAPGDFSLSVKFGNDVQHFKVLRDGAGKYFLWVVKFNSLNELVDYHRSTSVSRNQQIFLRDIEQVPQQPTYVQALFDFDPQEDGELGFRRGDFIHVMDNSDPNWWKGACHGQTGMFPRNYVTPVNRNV

`CC(=O)N[C@@H](Cc1ccc(OP(=O)(O)O)cc1)C(=O)NC1(C(=O)N[C@@H](CC(N)=O)C(=O)NCCCc2cccc3ccccc23)CCCCC1` showed an IC50 of 47 nM.

These molecules were tested against T1, Growth factor receptor-bound protein 2 (assay: Steady-state affinity constant for Grb2 SH2 domain binding by surface plasmon resonance).
Target sequence in this assay (P62993 whole entry, looked up, the tested form may be a part): as the sequence (P62993 whole entry, the tested form may be a part) above

In order of rising Keq:
1. NC(=O)C[C@H](NC(=O)C1(NC(=O)[C@H](Cc2ccc(C(C(=O)O)C(=O)O)cc2)NC(=O)C(=O)O)CCCCC1)C(=O)NCCCc1cccc2ccccc12  0.149 µM
2. CC(=O)N[C@@H](Cc1ccc(OP(=O)(O)O)cc1)C(=O)NC1(C(=O)N[C@@H](CC(N)=O)C(=O)NCCCc2cccc3ccccc23)CCCCC1  0.24 µM
3. NC(=O)C[C@H](NC(=O)C1(NC(=O)[C@H](Cc2ccc(C(O)(C(=O)O)C(=O)O)cc2)NC(=O)C(=O)O)CCCCC1)C(=O)NCCCc1cccc2ccccc12  0.27 µM
4. NC(=O)C[C@H](NC(=O)C1(NC(=O)[C@H](Cc2ccc(C(O)C(=O)O)cc2)NC(=O)C(=O)O)CCCCC1)C(=O)NCCCc1cccc2ccccc12 (stereo partly specified)  1.54 µM
5. NC(=O)C[C@H](NC(=O)C1(NC(=O)[C@H](Cc2ccc(CC(=O)O)cc2)NC(=O)C(=O)O)CCCCC1)C(=O)NCCCc1cccc2ccccc12  6.11 µM
